From patent US20060069132A1, “Azolecarboxamide herbicides” (priority 2004, published 2006)

What was measured:
[1] = test system: small flower umbrella sedge; assay: Test B flooded paddy test; assay type: in vivo, Cyperus difformis; settings: 1000 g ai/ha, scale 0 to 100 (0 no effect, 100 complete control)
Outline: (§1)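 Formulated test chemicals went onto postemergence plants measuring 2 to 18 cm, at one to four leaves. For the paddy assay, species had reached two leaves. Scoring took place 13–15 days later by eye, relative to untreated plants, using 0 for no effect up to 100 for full control.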

Surinam grass = assay: Test B pre-/postemergence herbicide test; assay type: in vivo, Urochloa decumbens
Outline: (§2)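 Greenhouse pot assay with simultaneous preemergence (treated seed) and postemergence (2–18 cm seedlings) applications of surfactant-containing, non-phytotoxic solvent formulations. Response scored visually 13–15 days later on a 0–100 scale, 100 meaning complete control.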

velvetleaf = assay: Test B pre-/postemergence herbicide test; assay type: in vivo, Abutilon theophrasti
Outline: as §2

rice = assay: Test B flooded paddy test; assay type: in vivo, Oryza sativa; settings: 1000 g ai/ha, scale 0 to 100 (0 no effect, 100 complete control)
Outline: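 Greenhouse test; postemergence application to plants at 1–4 leaves (2–18 cm); paddy species at 2 leaves; evaluated visually vs controls at 13–15 days; scale 0–100 (100 = complete control).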

wheat = assay: Test B postemergence herbicide test; assay type: in vivo, Triticum aestivum; parameters: key to Wheat plant response rating: 0 = no effect, 100 = complete control
Outline: (§3)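 Plants grow to 1- to 4-leaf stage (2–18 cm) for postemergence spraying, or to 2-leaf stage for the paddy test. Formulated compound is applied. Greenhouse holding lasts 13–15 days. Response is scored visually relative to controls, 0 no effect to 100 complete control; a dash means no result.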

large crabgrass = assay: Test B pre-/postemergence herbicide test; assay type: in vivo, Digitaria sanguinalis
Outline: as §2

barnyardgrass [2] = assay: Test B pre-/postemergence herbicide test; assay type: in vivo, Echinochloa crus-galli
Outline: (§4)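 Plants compared with untreated controls 13–15 days post-treatment and given a visual 0–100 injury score. Applications: preemergence to seeds; postemergence at 1- to 4-leaf (2–18 cm); paddy species flooded, 2-leaf stage. Vehicle non-phytotoxic, surfactant included.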

giant foxtail = assay: Test B pre-/postemergence herbicide test; assay type: in vivo, Setaria faberi
Outline: as §2

morningglory = assay: Test B pre-/postemergence herbicide test; assay type: in vivo, Ipomoea coccinea
Outline: as §4

corn = assay: Test B pre-/postemergence herbicide test; assay type: in vivo, Zea mays
Outline: as §2

barnyardgrass [3] = assay: Test B flooded paddy test; assay type: in vivo, Echinochloa crus-galli; settings: 1000 g ai/ha, scale 0 to 100 (0 no effect, 100 complete control)
Outline: as §1

wild oat = assay: Test B postemergence herbicide test; assay type: in vivo, Avena fatua
Outline: as §3

lambsquarters = assay: Test B pre-/postemergence herbicide test; assay type: in vivo, Chenopodium album
Outline: as §2

cocklebur = assay: Test B pre-/postemergence herbicide test; assay type: in vivo, Xanthium strumarium
Outline: as §4

pigweed = assay: Test B pre-/postemergence herbicide test; assay type: in vivo, Amaranthus retroflexus
Outline: as §2

[4] = 125 g ai/ha, 0 is no effect, 100 is complete control, preemergence
[5] = 125 g ai/ha, visual rating, scale 0 (no effect) to 100 (complete control), postemergence
[6] = 500 g ai/ha, visual rating, 0 = no effect, 100 = complete control, preemergence
[7] = postemergence, 500 g ai/ha, scale 0 to 100, 0 is no effect, 100 is complete control
[8] = 500 g ai/ha, visual rating 0-100, 0 no effect, 100 complete control, preemergence
[9] = Postemergence, 500 g ai/ha, visual rating after 13 to 15 days, scale 0 (no effect) to 100 (complete control)
[10] = postemergence, 125 g ai/ha, visual rating, scale 0 (no effect) to 100 (complete control)
[11] = preemergence, 125 g ai/ha, 0 to 100 scale, 0 is no effect, 100 is complete control
[12] = 125 g ai/ha, 0 = no effect, 100 = complete control, preemergence
[13] = Postemergence, 500 g ai/ha, scale 0 (no effect) to 100 (complete control)

## CCC1=NN(C(C)(C)C)CC1C(=O)Nc1cc(C(=O)N(C)C)ccc1F (racemic) [Compound 343]
[1]
  Sedge, Umbrella plant response rating: 90
Surinam grass; [4]
  Plant response rating (0 to 100 scale), Surinam Grass: 50
Surinam grass; [5]
  Surinam Grass plant response rating: 10
Surinam grass; [6]
  Plant response rating, Surinam Grass: 100
Surinam grass; [7]
  Surinam Grass plant response rating: 40
velvetleaf; [4]
  Plant response rating (0 to 100 scale), Velvetleaf: 100
velvetleaf; [5]
  Velvetleaf plant response rating: 20
velvetleaf; [7]
  Velvetleaf plant response rating: 50
rice
  Rice plant response rating: 80
wheat; [5]
  Wheat plant response rating: 0
wheat; [7]
  Wheat plant response rating: 0
Large crabgrass; [4]
  Plant response rating (0 to 100 scale), Crabgrass, Large: 40
Large crabgrass; [5]
  Crabgrass, Large plant response rating: 20
Large crabgrass; [6]
  Plant response rating, Crabgrass, Large: 100
Large crabgrass; [7]
  Crabgrass, Large plant response rating: 50
Barnyardgrass [2]; [4]
  Plant response rating (0 to 100 scale), Barnyardgrass: 70
Barnyardgrass [2]; [5]
  Barnyardgrass plant response rating: 10
Barnyardgrass [2]; [6]
  Plant response rating, Barnyardgrass: 100
Barnyardgrass [2]; [7]
  Barnyardgrass plant response rating: 50
Giant foxtail; [4]
  Plant response rating (0 to 100 scale), Foxtail, Giant: 30
Giant foxtail; [5]
  Foxtail, Giant plant response rating: 30
Giant foxtail; [6]
  Plant response rating, Foxtail, Giant: 100
Giant foxtail; [7]
  Foxtail, Giant plant response rating: 50
morningglory; [4]
  Plant response rating (0 to 100 scale), Morningglory: 50
morningglory; [5]
  Morningglory plant response rating: 30
morningglory; [6]
  Plant response rating, Morningglory: 100
morningglory; [7]
  Morningglory plant response rating: 80
corn; [5]
  Corn plant response rating: 10
corn; [7]
  Corn plant response rating: 30
Barnyardgrass [3]
  Barnyardgrass plant response rating: 90
Wild oat; [5]
  Oat, Wild plant response rating: 10
Wild oat; [7]
  Oat, Wild plant response rating: 10
lambsquarters; [4]
  Plant response rating (0 to 100 scale), Lambsquarters: 90
lambsquarters; [5]
  Lambsquarters plant response rating: 40
lambsquarters; [6]
  Plant response rating, Lambsquarters: 100
lambsquarters; [7]
  Lambsquarters plant response rating: 100
cocklebur; [5]
  Cocklebur plant response rating: 0
cocklebur; [6]
  Plant response rating, Cocklebur: 90
cocklebur; [7]
  Cocklebur plant response rating: 20
pigweed; [4]
  Plant response rating (0 to 100 scale), Pigweed: 90
pigweed; [5]
  Pigweed plant response rating: 40
pigweed; [6]
  Plant response rating, Pigweed: 100
pigweed; [7]
  Pigweed plant response rating: 90

## CC(=NO)c1cccc(NC(=O)c2cc(C(C)(C)C)nn2CCF)c1 [Compound 115]
[1]; visual rating, 13 to 15 days
  Sedge, Umbrella plant response rating: 90
Surinam grass; [8]
  Plant response rating, Surinam Grass: 70
Surinam grass; [9]
  Plant response rating, Surinam Grass: 60
Surinam grass; [10]
  Surinam Grass plant response rating: 60
Surinam grass; [11]
  Plant response rating, Surinam Grass: 70
velvetleaf; [8]
  Plant response rating, Velvetleaf: 100
velvetleaf; [9]
  Plant response rating, Velvetleaf: 80
velvetleaf; [10]
  Velvetleaf plant response rating: 60
velvetleaf; [11]
  Plant response rating, Velvetleaf: 80
rice; visual rating, 13 to 15 days
  Rice plant response rating: 60
wheat; [9]
  Plant response rating, Wheat: 30
wheat; [10]
  Wheat plant response rating: 30
Large crabgrass; [8]
  Plant response rating, Crabgrass, Large: 100
Large crabgrass; [9]
  Plant response rating, Crabgrass, Large: 30
Large crabgrass; [10]
  Crabgrass, Large plant response rating: 10
Large crabgrass; [11]
  Plant response rating, Crabgrass, Large: 90
Barnyardgrass [2]; [8]
  Plant response rating, Barnyardgrass: 100
Barnyardgrass [2]; [9]
  Plant response rating, Barnyardgrass: 50
Barnyardgrass [2]; [10]
  Barnyardgrass plant response rating: 10
Barnyardgrass [2]; [11]
  Plant response rating, Barnyardgrass: 80
Giant foxtail; [8]
  Plant response rating, Foxtail, Giant: 100
Giant foxtail; [9]
  Plant response rating, Foxtail, Giant: 30
Giant foxtail; [10]
  Foxtail, Giant plant response rating: 20
Giant foxtail; [11]
  Plant response rating, Foxtail, Giant: 80
morningglory; [8]
  Plant response rating, Morningglory: 90
morningglory; [11]
  Plant response rating, Morningglory: 30
corn; [8]
  Plant response rating, Corn: 30
corn; [11]
  Plant response rating, Corn: 0
Barnyardgrass [3]; visual rating, 13 to 15 days
  Barnyardgrass plant response rating: 90
Wild oat; [9]
  Plant response rating, Oat, Wild: 30
Wild oat; [10]
  Oat, Wild plant response rating: 10
lambsquarters; [8]
  Plant response rating, Lambsquarters: 100
lambsquarters; [9]
  Plant response rating, Lambsquarters: 100
lambsquarters; [10]
  Lambsquarters plant response rating: 80
lambsquarters; [11]
  Plant response rating, Lambsquarters: 100
cocklebur; [8]
  Plant response rating, Cocklebur: 40
cocklebur; [9]
  Plant response rating, Cocklebur: 90
cocklebur; [10]
  Cocklebur plant response rating: 80
cocklebur; [11]
  Plant response rating, Cocklebur: 20
pigweed; [8]
  Plant response rating, Pigweed: 100
pigweed; [9]
  Plant response rating, Pigweed: 100
pigweed; [10]
  Pigweed plant response rating: 80
pigweed; [11]
  Plant response rating, Pigweed: 80

## CCn1nc(C(C)(C)C)cc1C(=S)Nc1cc(C(=S)N(C)C)ccc1F [Compound 305]
[1]
  Sedge, Umbrella plant response rating: 90
Surinam grass; [12]
  Surinam Grass plant response rating (0 to 100 scale): 80
Surinam grass; [5]
  Surinam Grass plant response rating: 0
Surinam grass; [6]
  Plant response rating, Surinam Grass: 100
Surinam grass; [7]
  Surinam Grass plant response rating: 20
velvetleaf; [5]
  Velvetleaf plant response rating: 20
velvetleaf; [6]
  Plant response rating, Velvetleaf: 100
velvetleaf; [7]
  Velvetleaf plant response rating: 20
rice
  Rice plant response rating: 70
wheat; [5]
  Wheat plant response rating: 0
wheat; [7]
  Wheat plant response rating: 10
Large crabgrass; [12]
  Crabgrass, Large plant response rating (0 to 100 scale): 90
Large crabgrass; [5]
  Crabgrass, Large plant response rating: 0
Large crabgrass; [6]
  Plant response rating, Crabgrass, Large: 100
Large crabgrass; [7]
  Crabgrass, Large plant response rating: 0
Barnyardgrass [2]; [12]
  Barnyardgrass plant response rating (0 to 100 scale): 80
Barnyardgrass [2]; [5]
  Barnyardgrass plant response rating: 0
Barnyardgrass [2]; [6]
  Plant response rating, Barnyardgrass: 90
Barnyardgrass [2]; [7]
  Barnyardgrass plant response rating: 0
Giant foxtail; [12]
  Foxtail, Giant plant response rating (0 to 100 scale): 80
Giant foxtail; [5]
  Foxtail, Giant plant response rating: 20
Giant foxtail; [6]
  Plant response rating, Foxtail, Giant: 100
Giant foxtail; [7]
  Foxtail, Giant plant response rating: 20
morningglory; [12]
  Morningglory plant response rating (0 to 100 scale): 0
morningglory; [5]
  Morningglory plant response rating: 0
morningglory; [6]
  Plant response rating, Morningglory: 0
morningglory; [7]
  Morningglory plant response rating: 0
corn; [12]
  Corn plant response rating (0 to 100 scale): 10
corn; [5]
  Corn plant response rating: 70
corn; [6]
  Plant response rating, Corn: 60
corn; [7]
  Corn plant response rating: 70
Barnyardgrass [3]
  Barnyardgrass plant response rating: 90
Wild oat; [5]
  Oat, Wild plant response rating: 10
Wild oat; [7]
  Oat, Wild plant response rating: 30
lambsquarters; [12]
  Lambsquarters plant response rating (0 to 100 scale): 100
lambsquarters; [5]
  Lambsquarters plant response rating: 50
lambsquarters; [6]
  Plant response rating, Lambsquarters: 100
lambsquarters; [7]
  Lambsquarters plant response rating: 80
cocklebur; [12]
  Cocklebur plant response rating (0 to 100 scale): 50
cocklebur; [5]
  Cocklebur plant response rating: 10
cocklebur; [6]
  Plant response rating, Cocklebur: 70
cocklebur; [7]
  Cocklebur plant response rating: 10
pigweed; [12]
  Pigweed plant response rating (0 to 100 scale): 100
pigweed; [5]
  Pigweed plant response rating: 0
pigweed; [6]
  Plant response rating, Pigweed: 100
pigweed; [7]
  Pigweed plant response rating: 70

## CCNC(=O)c1cccc(NC(=O)c2nn(C(C)(C)C)nc2C)c1 [Compound 392]
[1]
  Sedge, Umbrella plant response rating: 80
Surinam grass; [4]
  Plant response rating (0 to 100 scale), Surinam Grass: 70
Surinam grass; [5]
  Surinam Grass plant response rating: 10
Surinam grass; [13]
  Surinam Grass plant response rating: 20
velvetleaf; [4]
  Plant response rating (0 to 100 scale), Velvetleaf: 70
velvetleaf; [5]
  Velvetleaf plant response rating: 30
velvetleaf; [13]
  Velvetleaf plant response rating: 40
rice
  Rice plant response rating: 80
wheat; [5]
  Wheat plant response rating: 0
wheat; 500 g ai/ha, scale 0 to 100, 0 no effect, 100 complete control, preemergence
  Wheat plant response rating: 100
wheat; [13]
  Wheat plant response rating: 10
Large crabgrass; [4]
  Plant response rating (0 to 100 scale), Crabgrass, Large: 100
Large crabgrass; [5]
  Crabgrass, Large plant response rating: 10
Large crabgrass; [13]
  Crabgrass, Large plant response rating: 20
Barnyardgrass [2]; [4]
  Plant response rating (0 to 100 scale), Barnyardgrass: 90
Barnyardgrass [2]; [5]
  Barnyardgrass plant response rating: 10
Barnyardgrass [2]; [13]
  Barnyardgrass plant response rating: 20
Giant foxtail; [4]
  Plant response rating (0 to 100 scale), Foxtail, Giant: 80
Giant foxtail; [5]
  Foxtail, Giant plant response rating: 20
Giant foxtail; [13]
  Foxtail, Giant plant response rating: 30
morningglory; [4]
  Plant response rating (0 to 100 scale), Morningglory: 90
morningglory; [5]
  Morningglory plant response rating: 20
morningglory; [13]
  Morningglory plant response rating: 70
corn; [4]
  Plant response rating (0 to 100 scale), Corn: 70
corn; [5]
  Corn plant response rating: 0
corn; [13]
  Corn plant response rating: 20
Barnyardgrass [3]
  Barnyardgrass plant response rating: 90
Wild oat; [5]
  Oat, Wild plant response rating: 0
Wild oat; [13]
  Oat, Wild plant response rating: 30
lambsquarters; [4]
  Plant response rating (0 to 100 scale), Lambsquarters: 100
lambsquarters; [5]
  Lambsquarters plant response rating: 70
lambsquarters; [13]
  Lambsquarters plant response rating: 90
cocklebur; [4]
  Plant response rating (0 to 100 scale), Cocklebur: 40
cocklebur; [5]
  Cocklebur plant response rating: 20
cocklebur; [13]
  Cocklebur plant response rating: 40
pigweed; [4]
  Plant response rating (0 to 100 scale), Pigweed: 100
pigweed; [5]
  Pigweed plant response rating: 60
pigweed; [13]
  Pigweed plant response rating: 60
